Measured values as given in PubChem BioAssay (NCI).
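Growth conditions: 96-well plates. Treatment: test compound, 48 hours, 5 concentrations. Analysis: linear interpolation between bracketing concentrations; unreached endpoints set to highest concentration. At the TGI there is no net growth.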

Assays:
Assay in all cases: NCI tumour cell line growth inhibition, 48 h
DMS 114 small cell lung = system: DMS 114 small cell lung
KM20L2 colon = system: KM20L2 colon
LXFL 529 NSCLC = system: LXFL 529 NSCLC
M19-MEL melanoma = system: M19-MEL melanoma
XF 498 CNS = system: XF 498 CNS
RXF-631 renal = system: RXF-631 renal
P388 leukemia = system: P388 leukemia
P388/ADR leukemia = system: P388/ADR leukemia
SN12K1 renal = system: SN12K1 renal

Row | SMILES | TGI (DMS 114 small cell lung) | TGI (KM20L2 colon) | TGI (LXFL 529 NSCLC) | TGI (M19-MEL melanoma) | TGI (XF 498 CNS) | TGI (RXF-631 renal) | TGI (P388 leukemia) | TGI (P388/ADR leukemia) | TGI (SN12K1 renal)
1 | CC(C)(C)C1CCC2(CC1)c1[nH]c3ccccc3c1C1(CCC(C(C)(C)C)CC1)c1[nH]c3ccccc3c12 (stereo unspecified) | 57.3 µM | > 100 µM | > 100 µM | > 100 µM | > 100 µM | – | – | – | –
2 | O=C(O)C(CS)N=c1c2ccccc2n(O)c2ccccc12 (stereo unspecified) | > 100 µM | > 100 µM | > 100 µM | > 100 µM | – | > 100 µM | – | – | –
3 | COC(=O)C1CC2(c3ccccc3)C(=O)c3ccccc3N2O1 (stereo unspecified) | > 100 µM | > 100 µM | > 100 µM | > 100 µM | – | – | – | – | –
4 | O=C(N/N=C/c1cc(Br)cc(Br)c1[O-])c1ccccc1O.O=C(N/N=C/c1cc(Br)cc(Br)c1[O-])c1ccccc1O.[Fe+2] | – | 17.4 µM | – | – | – | – | – | – | –
5 | COC1(OC)CCCCC2c3cccc(OC(C)=O)c3C21OC(C)=O (stereo unspecified) | > 100 µM | – | > 100 µM | > 100 µM | > 100 µM | – | – | – | –
6 | O=C(CC1=NCCN1)c1ccccc1 | > 750 µM | > 750 µM | – | > 750 µM | > 750 µM | – | > 750 µM | > 750 µM | > 750 µM
7 | COc1c(Br)cc(CC(N)=O)c(O)c1Br | > 100 µM | > 100 µM | – | > 100 µM | > 100 µM | > 100 µM | – | – | –
8 | O=[N+]([O-])c1ccc(-c2ccc(-c3csc(Nc4ccccn4)n3)o2)cc1 | – | > 100 µM | 76.8 µM | > 100 µM | 49.9 µM | > 100 µM | – | – | –
